We go through 18 molecules from patent US4413006A, “N-Aryl-N-phenoxy-alkyl-piperazine compounds useful in decreasing intracranial pressure” (Tanabe Seiyaku Co., Ltd., priority 1980, dated 1983).

Where two headings read alike, the source gives them in different places. Where only a bound is given, the exact number is not on record here.

The test system of series [1] is intracranial pressure (cerebrospinal fluid pressure in the cisterna magna). Briefly: Effect of i.v. injection of test compounds on intracranial pressure in rats (Experiment 1). Type of series: in vivo, Male SD-rats. As to conditions: for Change in intracranial pressure (%), time after administration of test compound 40 minutes / Change in intracranial pressure (%), time after administration of test compound 60 minutes / Change in intracranial pressure (%), time after administration of test compound 120 minutes / Change in intracranial pressure (%), time after administration of test compound 180 minutes: i.v. infusion 0.2 ml/kg/minute for 20 minutes; for Change in intracranial pressure (%), time after administration of test compound 40 minutes: baseline 100, control 106.4; for Change in intracranial pressure (%), time after administration of test compound 60 minutes: baseline 100, control 107.5; for Change in intracranial pressure (%), time after administration of test compound 120 minutes: baseline 100, control 114.4; for Change in intracranial pressure (%), time after administration of test compound 180 minutes: baseline 100, control 110.7. Here is the method: (Effect of i.v. injection of test compounds on intracranial pressure in rats) Male SD-rats weighing 500 to 800 g (each group consisting of 5 rats) were anesthetized with urethane. A solution of a test compound in an aqueous 5 w/v % mannitol solution was infused via the femoral vein at a rate of 0.2 ml/kg/minute for 20 minutes (when the test compound was used in the form of free base, said solution was prepared by dissolving it in an aqueous 5 w/v % mannitol solution with the aid of 0.5 N hydrochloric acid). Intracranial pressure (i.e., cerebrospinal fluid pressure in the cisterna magna) was continuously monitored via a cannula inserted in the cisterna magna. The cannula was connected to a transducer, and recording were made on graph paper. The effect of the test compound on the intracranial pressure was estimated in terms of the increase or decrease in intracranial pressure, which was calculated in accordance with the following formula: [formula]

Series [2] in a line: Maximum tolerance dose in mice (Experiment 3). Also noted: species or system male mice. To be noted: mouse, in vivo, ip. Here is the method: As a result, the maximum tolerance doses of 1-[3-(4-acetamido-2-methoxyphenoxy)-n-propyl]-4-(3-fluorophenyl)-piperazine, 1-[3-(4-acetamido-2-methoxyphenoxy)-n-propyl]-4-(2-fluorophenyl)-piperazine and 1-[3-(4-ethoxycarbonylamino-2-methoxyphenoxy)-n-propyl]-4-phenyl-piperazine methanesulfonate were more than 300 mg/kg.

The test system of series [3] is apomorphine-induced cage climbing. Briefly: Anti-apomorphine activity in mice (Experiment 2 (3)). The format is in vivo, male mice. To be noted: Mus musculus, ip, apomorphine hydrochloride 2.5 mg/kg s.c., dose decreasing climbing mice by 50%. As for the experimental part: (§1) (Inhibitory effect of test compound on central nervous system in mice)
(§2) Inhibitory effect of test compound on central nervous system was examined by the following methods.
A solution or suspension of a test compound in water or an aqueous carboxymethylcellulose solution was administered intraperitoneally to male mice weighing 18 to 20 g (each group consisting of 5 mice). Thirty minutes after administration of the test compound, apomorphine hydrochloride (2.5 mg/kg) was administered subcutaneously to the mice, and the number of the mice which could climb a cage was examined. The 50% effective dose (ED50) of the test compound was estimated in terms of dose which is necessary to decrease the number of the medicated mice which could climb the cage by 50% of the number of a control group (i.e., non-medicated mice) which could climb the cage.

The subject of series [4] is spontaneous motor activity / central nervous system. Briefly: Inhibitory effect on spontaneous motor activity in mice (Experiment 2 (1)). As to conditions: Mus musculus, ip, 0.5 h, i.p., 30 minutes after administration, dose decreasing motor activity by 50%. The format is in vivo, male mice. As for the experimental part: as §1, §2
A solution or suspension of a test compound in water or an aqueous carboxymethylcellulose solution was administered intraperitoneally to male mice weighing 18 to 20 g (each group consisting of 5 mice). Thirty minutes after administration of the test compound, the spontaneous motor activity of the mice was measured with an animex activity meter for 5 minutes. The 50% effective dose (ED50) of the test compound was estimated in terms of dose which is necessary to decrease the motor activity of the medicated mice by 50% of that of a control group (i.e., non-medicated mice).

Regarding `COc1cc(NC(C)=O)ccc1OCCCN1CCN(c2cccc(F)c2)CC1` [Example 5, 1-[3-(4-acetamido-2-methoxyphenoxy)-n-propyl]-4-(3-fluorophenyl)-piperazine], in series [1] (femoral vein infusion, dose 1 mg/kg, 40 minutes after administration), the “decrease in the intracranial pressure” value is recorded as “about 27%”. The same molecule yielded an MTD at 72 h in series [2] of more than 300 mg/kg.

In series [2], `COc1cc(NC(C)=O)ccc1OCCCN1CCN(c2ccccc2F)CC1` [Example 7, 1-[3-(4-acetamido-2-methoxyphenoxy)-n-propyl]-4-(2-fluorophenyl)-piperazine] had an MTD at 72 h of more than 300 mg/kg.

With `CCOC(=O)Nc1ccc(OCCCN2CCN(c3ccccc3)CC2)c(OC)c1.CS(=O)(=O)O` [Example 21 methanesulfonate, 1-[3-(4-ethoxycarbonylamino-2-methoxyphenoxy)-n-propyl]-4-phenyl-piperazine methanesulfonate], in series [1], the “Change in intracranial pressure (%), time after administration of test compound 40 minutes” value amounted to 79.7%; the “Change in intracranial pressure (%), time after administration of test compound 60 minutes” value amounted to 79.3%; the “Change in intracranial pressure (%), time after administration of test compound 120 minutes” value is 79.2%; the “Change in intracranial pressure (%), time after administration of test compound 180 minutes” value is listed as 82.2%. The MTD at 72 h in series [2] (mice, i.p., observed for 72 hours, read-out: maximum tolerance dose) was more than 300 mg/kg.

The molecule `COc1cc(NC(C)=O)ccc1OCCCN1CCN(c2ccccc2F)CC1` [NO. 2 (Table 4)] gave an ED50 in series [3] of 2.8 mg/kg.

With `COc1cc(NC(C)=O)ccc1OCCCCN1CCN(c2ccccc2F)CC1` [NO. 3 (Table 1)], in series [1], the “Change in intracranial pressure (%), time after administration of test compound 40 minutes” value amounted to 86.6%; the “Change in intracranial pressure (%), time after administration of test compound 60 minutes” value is reported as 91.9%; the “Change in intracranial pressure (%), time after administration of test compound 120 minutes” value came to 85.7%; the “Change in intracranial pressure (%), time after administration of test compound 180 minutes” value is 84.6%.

Consider `CCOC(=O)Nc1ccc(OCCCN2CCN(c3ccccc3)CC2)c(OC)c1` [NO. 3 (Table 4)], for which it took a dose of 3 mg/kg to reach the 50% effect level in series [3] (ED50).

`CCNc1ccc(OCCCN2CCN(c3ccccc3)CC2)c(OC)c1.Cl` [NO. 4 (Table 1), 1-[3-(4-ethylamino-2-methoxyphenoxy)-n-propyl]-4-phenyl-piperazine hydrochloride]: in series [1], the “Change in intracranial pressure (%), time after administration of test compound 40 minutes” value came to 83.9%; the “Change in intracranial pressure (%), time after administration of test compound 60 minutes” value worked out at 81.1%; the “Change in intracranial pressure (%), time after administration of test compound 120 minutes” value is reported as 86.8%; the “Change in intracranial pressure (%), time after administration of test compound 180 minutes” value came out at 91.3%.

Regarding `COc1cc(NC(C)=O)ccc1OCCCN1CCN(c2ccccc2F)CC1` [NO. 4 (Table 2)], in series [4], it took a dose of 0.5 mg/kg to reach the 50% effect level (ED50).

With `COc1cc(N)ccc1OCCCN1CCN(c2ccccc2)CC1` [NO. 5 (Table 1)], in series [1], the “Change in intracranial pressure (%), time after administration of test compound 40 minutes” value was determined as 79.1%; the “Change in intracranial pressure (%), time after administration of test compound 60 minutes” value came to 77.0%; the “Change in intracranial pressure (%), time after administration of test compound 120 minutes” value came out at 75.0%; the “Change in intracranial pressure (%), time after administration of test compound 180 minutes” value turned out to be 75.6%.

As for `COc1cc(N)ccc1OCCCN1CCN(c2ccccc2)CC1` [NO. 5 (Table 2), 1-[3-(4-amino-2-methoxyphenoxy)-n-propyl]-4-phenyl-piperazine], it took a dose of 0.7 mg/kg to reach the 50% effect level in series [4] (ED50).

Regarding `COc1cc(NC(C)C(=O)O)ccc1OCCCN1CCN(c2ccccc2)CC1.Cl` (centres unmarked) [NO. 6 (Table 1), 1-{3-[4-(1-carboxyethylamino)-2-methoxyphenoxy]-n-propyl}-4-phenylpiperazine hydrochloride], in series [1], the “Change in intracranial pressure (%), time after administration of test compound 40 minutes” value came out at 81.5%; the “Change in intracranial pressure (%), time after administration of test compound 60 minutes” value was 86.2%; the “Change in intracranial pressure (%), time after administration of test compound 120 minutes” value amounted to 96.2%; the “Change in intracranial pressure (%), time after administration of test compound 180 minutes” value is recorded as 99.0%.

As for `COc1cc(NC=O)ccc1OCCCN1CCN(c2ccccc2)CC1` [NO. 7 (Table 1), 1-[3-(4-formylamino-2-methoxphenoxy)-n-propyl]-4-phenyl-piperazine], in series [1], the “Change in intracranial pressure (%), time after administration of test compound 40 minutes” value is on record as 84.1%; the “Change in intracranial pressure (%), time after administration of test compound 60 minutes” value turned out to be 83.5%; the “Change in intracranial pressure (%), time after administration of test compound 120 minutes” value is 83.5%; the “Change in intracranial pressure (%), time after administration of test compound 180 minutes” value turned out to be 81.9%.

Turning to `COc1cc(NC(=O)C(C)C)ccc1OCCCN1CCN(c2ccccc2)CC1` [NO. 8 (Table 1), 1-[3-(4-isobutyrylamino-2-methoxyphenoxy)-n-propyl]-4-phenyl-piperazine], in series [1], the “Change in intracranial pressure (%), time after administration of test compound 40 minutes” value is on record as 83.3%; the “Change in intracranial pressure (%), time after administration of test compound 60 minutes” value was 85.4%; the “Change in intracranial pressure (%), time after administration of test compound 120 minutes” value amounted to 85.1%; the “Change in intracranial pressure (%), time after administration of test compound 180 minutes” value came out at 87.1%.

For `COc1cc(NC(=O)C(C)(C)C)ccc1OCCCN1CCN(c2ccccc2)CC1` [NO. 9 (Table 1), 1-[3-(4-t-butylcarbonylamino-2-methoxyphenoxy)-n-propyl]-4-phenyl-piperazine], in series [1], the “Change in intracranial pressure (%), time after administration of test compound 40 minutes” value was 84.1%; the “Change in intracranial pressure (%), time after administration of test compound 60 minutes” value was found to be 84.9%; the “Change in intracranial pressure (%), time after administration of test compound 120 minutes” value was 84.9%; the “Change in intracranial pressure (%), time after administration of test compound 180 minutes” value is on record as 87.4%.

In the case of `COc1cc(NC(=O)C2CC2)ccc1OCCCN1CCN(c2ccccc2)CC1` [NO. 10 (Table 1), 1-[3-(4-cyclopropylcarbonylamino-2-methoxyphenoxy)-n-propyl]-4-phenyl-piperazine], in series [1], the “Change in intracranial pressure (%), time after administration of test compound 40 minutes” value was determined as 85.9%; the “Change in intracranial pressure (%), time after administration of test compound 60 minutes” value was 84.3%; the “Change in intracranial pressure (%), time after administration of test compound 120 minutes” value came to 83.6%; the “Change in intracranial pressure (%), time after administration of test compound 180 minutes” value turned out to be 86.2%.

As for `COc1cc(NC(=O)C2CCCCC2)ccc1OCCCN1CCN(c2ccccc2)CC1` [NO. 11 (Table 1), 1-[3-(4-cyclohexylcarbonylamino-2-methoxyphenoxy)-n-propyl]-4-phenyl-piperazine], in series [1], the “Change in intracranial pressure (%), time after administration of test compound 40 minutes” value came to 91.1%; the “Change in intracranial pressure (%), time after administration of test compound 60 minutes” value was 94.3%; the “Change in intracranial pressure (%), time after administration of test compound 120 minutes” value came out at 78.7%; the “Change in intracranial pressure (%), time after administration of test compound 180 minutes” value turned out to be 78.8%.

Turning to `COc1cc(NC(=O)C=C(C)C)ccc1OCCCN1CCN(c2ccccc2)CC1` [NO. 12 (Table 1), 1-{3-[4-((2-methyl-1-propenyl)carbonylamino)-2-methoxyphenoxy]-n-propyl}-4-phenylpiperazine], in series [1], the “Change in intracranial pressure (%), time after administration of test compound 40 minutes” value came to 76.7%; the “Change in intracranial pressure (%), time after administration of test compound 60 minutes” value is reported as 84.3%; the “Change in intracranial pressure (%), time after administration of test compound 120 minutes” value came to 91.9%; the “Change in intracranial pressure (%), time after administration of test compound 180 minutes” value came to 93.5%.

Turning to `COc1cc(NC(=O)OC(C)(C)C)ccc1OCCCN1CCN(c2ccccc2)CC1` [NO. 14 (Table 1), 1-[3-(4-t-butoxycarbonylamino-2-methoxyphenoxy)-n-propyl]-4-phenyl-piperazine], in series [1], the “Change in intracranial pressure (%), time after administration of test compound 40 minutes” value was determined as 78.9%; the “Change in intracranial pressure (%), time after administration of test compound 60 minutes” value is 77.7%; the “Change in intracranial pressure (%), time after administration of test compound 120 minutes” value is given as 80.3%; the “Change in intracranial pressure (%), time after administration of test compound 180 minutes” value is 81.6%.
